Among the data in patent US12673956B2, “Oxadiazolyl dihydropyrano[2,3-b]pyridine inhibitors of HIPK2 for treating kidney fibrosis” (ICAHN SCHOOL OF MEDICINE AT MOUNT SINAI, priority 2021, dated 2026) are IC50 values, retold here.

Where two headings read alike, the source gives them in different places.

Broadly, the IC50 is the concentration at which inhibition is half-maximal.

The test system of this test is TGF/SMAD Signaling Pathway SBE Reporter—HEK293 Cell Line. Put plainly: Luciferase screen, TGF/SMAD SBE reporter HEK293 cells stimulated with TGFβ. The settings on record: Homo sapiens. Format: cell-based. As for the experimental part: For the data in Table 1, the Bight-Glo™ Luciferase Assay System from Promega was used with TGF/SMAD Signaling Pathway SBE Reporter—HEK293 Cell Line from BPSbioscience. On day 1 SBE reporter-HEK293 cells were seeded at a density of 25,000 cells per well into a white clear-bottom 96-well microplate in 100 μl of growth medium without geneticin. The plate was incubated at 37° C. in a CO2 incubator for 24 hrs. The wells were renewed with 60 μL assay medium and treated with test compounds by adding 5 μL of compounds in medium. The concentration of test compound in medium is adjusted so that 5 μL will provide the desired molarity of the solution. For example, if the desired test concentration is 30 µM, then 5 μL of […] compound is added. After 4 hours, TGFβ was added to 10 ng/mL. The plate was incubated at 37° C. in a CO2 incubator overnight (18 hours). One hour prior to assay all medium was replaced. The luciferase assay was run using ONE-Step™ Luciferase Assay System by adding 100 al of ONE-Step™ Luciferase reagent per well, rocking at room temperature for ~15 to 30 minutes and measuring luminescence using a luminometer. The signals were normalized to percentage inhibition, with non-TGF treated cells as 100% inhibition, and the data were processed by Graphpad Prism.

Setting [1] is: SBE reporter-HEK293 cells, TGFβ 10 ng/mL, 18 hours, read-out: Luciferase IC50.
Setting [2] is: HEK293, 18 h, read-out: Luciferase IC50 nM.

Take `C[C@@H]1CCc2cc(-c3nc(-c4ccc(Br)cc4)no3)cnc2O1` [Example 4, ethyl (R)-6-(3-(4-bromophenyl)-1,2,4-oxadiazol-5-yl)-2-methyl-3,4-dihydro-2H-pyrano[2,3-b]pyridine]: under setting [1], the IC50 came to 126 nM.
As for `Cn1ccc(-c2noc(-c3cnc4c(c3)C[C@@H](O)C(C)(C)O4)n2)n1` [Example 17, (R)-2,2-dimethyl-6-(3-(1-methyl-1H-pyrazol-3-yl)-1,2,4-oxadiazol-5-yl)-3,4-dihydro-2H-pyrano[2,3-b]pyridin-3-ol], the IC50 under setting [1] is 18 nM.
On the same count and under the same terms, next, `CC1(C)Oc2ncc(-c3nc(-c4nc(Cl)cs4)no3)cc2C[C@H]1O` [Example 27, (R)-6-(3-(4-chlorothiazol-2-yl)-1,2,4-oxadiazol-5-yl)-2,2-dimethyl-3,4-dihydro-2H-pyrano[2,3-b]pyridin-3-ol]: 705 nM.
With `CCn1ccc(-c2noc(-c3cnc4c(c3)C[C@@H](O)C(C)(C)O4)n2)n1` [Example 29, (R)-6-(3-(1-ethyl-1H-pyrazol-3-yl)-1,2,4-oxadiazol-5-yl)-2,2-dimethyl-3,4-dihydro-2H-pyrano[2,3-b]pyridin-3-ol], the IC50 under setting [2] was found to be 56 nM.
Still for that read-out and setting: under `CC1(C)Oc2ncc(-c3nc(-c4ccc(Br)cc4)no3)cc2C[C@H]1O` [Example 6, (R)-6-(3-(4-bromophenyl)-1,2,4-oxadiazol-5-yl)-2,2-dimethyl-3,4-dihydro-2H-pyrano[2,3-b]pyridin-3-ol] stands 27 nM.
Take `CC1(C)Oc2ncc(-c3nc(-c4ncc(Cl)s4)no3)cc2C[C@H]1O` [Example 25, (R)-6-(3-(5-chlorothiazol-2-yl)-1,2,4-oxadiazol-5-yl)-2,2-dimethyl-3,4-dihydro-2H-pyrano[2,3-b]pyridin-3-ol]: the IC50 under setting [1] was 206 nM.
For `Cc1cnc(-c2noc(-c3cnc4c(c3)C[C@H](O)C(C)(C)O4)n2)s1` [Example 24, (S)-2,2-dimethyl-6-(3-(5-methylthiazol-2-yl)-1,2,4-oxadiazol-5-yl)-3,4-dihydro-2H-pyrano[2,3-b]pyridin-3-ol], the IC50 under setting [1] was 822 nM.
As to `CC1(C)C[C@H](O)c2cc(-c3nc(-c4ccc(Br)cc4)no3)cnc2O1` (single isomer, unassigned) [Example 11], the IC50 under setting [1] is 57 nM.
In the case of `CC1(C)Oc2ncc(-c3nc(-c4ncco4)no3)cc2C[C@H]1O` [Example 33, (3R)-2,2-dimethyl-6-(3-oxazol-2-yl-1,2,4-oxadiazol-5-yl)-3,4-dihydropyrano[2,3-b]pyridin-3-ol], the IC50 under setting [2] was 76 nM.
On to `CC1(C)Oc2ncc(-c3nc(-c4cc(Cl)cc(Cl)c4)no3)cc2C[C@H]1O` [Example 40, (R)-6-(3-(3,5-dichlorophenyl)-1,2,4-oxadiazol-5-yl)-2,2-dimethyl-3,4-dihydro-2H-pyrano[2,3-b]pyridin-3-ol], for which the IC50 under setting [1] is 843 nM.
On to `C[C@H]1CCc2cc(-c3nc(-c4ccc(Br)cc4)no3)cnc2O1` [Example 3], for which the IC50 under setting [1] turned out to be 234 nM.
Regarding `Cc1ccc(-c2noc(-c3cnc4c(c3)C[C@H](O)C(C)(C)O4)n2)cc1` [Example 21, (S)-2,2-dimethyl-6-(3-p-tolyl-1,2,4-oxadiazol-5-yl)-3,4-dihydro-2H-pyrano[2,3-b]pyridin-3-ol], the IC50 under setting [2] came out at 17 nM.
For the compound `CC1(C)Oc2ncc(-c3nc(-c4cccc(F)c4)no3)cc2C[C@H]1O` [Example 38, (R)-6-(3-(3-fluorophenyl)-1,2,4-oxadiazol-5-yl)-2,2-dimethyl-3,4-dihydro-2H-pyrano[2,3-b]pyridin-3-ol], under setting [1], the IC50 turned out to be 148 nM.
Consider `CC1(C)Oc2ncc(-c3nc(-c4ccc(Br)cc4)no3)cc2[C@@H](O)[C@@H]1O` [Example 9, (3S,4R)-6-(3-(4-bromophenyl)-1,2,4-oxadiazol-5-yl)-2,2-dimethyl-3,4-dihydro-2H-pyrano[2,3-b]pyridine-3,4-diol], for which, under setting [2], the IC50 turned out to be 2420 nM.
For the compound `CC1(C)C[C@@H](O)c2cc(-c3nc(-c4ccc(Br)cc4)no3)cnc2O1` (single isomer, unassigned) [Example 10], the IC50 under setting [1] is 233 nM.
As to `CC1(C)Oc2ncc(-c3nc(-c4ccc(Br)cc4)no3)cc2C[C@@H]1O` [Example 7, (S)-6-(3-(4-bromophenyl)-1,2,4-oxadiazol-5-yl)-2,2-dimethyl-3,4-dihydro-2H-pyrano[2,3-b]pyridin-3-ol], the IC50 under setting [2] was found to be 37 nM.
With `CC1(C)Oc2ncc(-c3nc(-c4ccc(Cl)c(F)c4)no3)cc2C[C@@H]1O` [Example 34, (S)-6-(3-(4-chloro-3-fluorophenyl)-1,2,4-oxadiazol-5-yl)-2,2-dimethyl-3,4-dihydro-2H-pyrano[2,3-b]pyridin-3-ol], the IC50 under setting [2] came to 39 nM.
On to `Cc1cc(-c2noc(-c3cnc4c(c3)C[C@@H](O)C(C)(C)O4)n2)ccc1Cl` [Example 37, (3R)-6-[3-(4-chloro-3-methyl-phenyl)-1,2,4-oxadiazol-5-yl]-2,2-dimethyl-3,4-dihydropyrano[2,3-b]pyridin-3-ol], for which, under setting [1], the IC50 came to 50 nM.
For the compound `CC1(C)Oc2ncc(-c3nc(-c4ccc(Cl)c(F)c4)no3)cc2CC1O` (stereo in doubt) [Example 35, (S)-6-(3-(4-chloro-3-fluorophenyl)-1,2,4-oxadiazol-5-yl)-2,2-dimethyl-3,4-dihydro-2H-pyrano[2,3-b]pyridin-3-ol], the IC50 under setting [2] came out at 22 nM.
With `CC1(C)Oc2ncc(-c3nc(-c4ncc(Cl)s4)no3)cc2C[C@@H]1O` [Example 23, (S)-6-(3-(5-chlorothiazol-2-yl)-1,2,4-oxadiazol-5-yl)-2,2-dimethyl-3,4-dihydro-2H-pyrano[2,3-b]pyridin-3-ol], the IC50 under setting [1] was found to be 242 nM.
Take `CC1(C)Oc2ncc(-c3nc(-c4nccs4)no3)cc2CC1O` (stereo in doubt) [Example 14, (R)-2,2-dimethyl-6-(3-(thiazol-2-yl)-1,2,4-oxadiazol-5-yl)-3,4-dihydro-2H-pyrano[2,3-b]pyridin-3-ol]: the IC50 under setting [1] came out at 1370 nM.
For the compound `CC1(C)Oc2ncc(-c3nc(-c4nc(Cl)cs4)no3)cc2C[C@@H]1O` [Example 28, (S)-6-(3-(4-chlorothiazol-2-yl)-1,2,4-oxadiazol-5-yl)-2,2-dimethyl-3,4-dihydro-2H-pyrano[2,3-b]pyridin-3-ol], under setting [2], the IC50 amounted to 13 nM.
In the case of `CC1(C)Oc2ncc(-c3nc(-c4nccs4)no3)cc2CC1O` (stereo in doubt) [Example 16, (S)-2,2-dimethyl-6-(3-(thiazol-2-yl)-1,2,4-oxadiazol-5-yl)-3,4-dihydro-2H-pyrano[2,3-b]pyridin-3-ol], the IC50 under setting [1] came out at 1110 nM.
With `Cc1cnc(-c2noc(-c3cnc4c(c3)C[C@@H](O)C(C)(C)O4)n2)s1` [Example 26, (R)-2,2-dimethyl-6-(3-(5-methylthiazol-2-yl)-1,2,4-oxadiazol-5-yl)-3,4-dihydro-2H-pyrano[2,3-b]pyridin-3-ol], the IC50 under setting [1] is 708 nM.
On to `CC1(C)Oc2ncc(-c3nc(-c4ccc(Cl)c(Cl)c4)no3)cc2C[C@@H]1O` [Example 22, (S)-6-(3-(3,4-dichlorophenyl)-1,2,4-oxadiazol-5-yl)-2,2-dimethyl-3,4-dihydro-2H-pyrano[2,3-b]pyridin-3-ol], for which the IC50 under setting [2] turned out to be 43 nM.
As for `CC1(C)Oc2ncc(-c3nc(-c4ccc(F)cc4)no3)cc2C[C@@H]1O` [Example 20, (S)-6-(3-(4-fluorophenyl)-1,2,4-oxadiazol-5-yl)-2,2-dimethyl-3,4-dihydro-2H-pyrano[2,3-b]pyridin-3-ol], the IC50 under setting [1] amounted to 223 nM.
`CC1(C)Oc2ncc(-c3nc(-c4ccc(Br)cc4)no3)cc2CC1O` (stereo not drawn) [Example 1, 6-(3-(4-bromophenyl)-1,2,4-oxadiazol-5-yl)-2,2-dimethyl-3,4-dihydro-2H-pyrano[2,3-b]pyridin-3-ol]: the IC50 under setting [2] was found to be 43 nM.
In the case of `CC1(C)CC(O)c2cc(-c3nc(-c4ccc(Br)cc4)no3)cnc2O1` (stereo not drawn) [Example 5, 6-(3-(4-bromophenyl)-1,2,4-oxadiazol-5-yl)-2,2-dimethyl-3,4-dihydro-2H-pyrano[2,3-b]pyridin-4-ol], the IC50 under setting [1] was found to be 86 nM.
Still for that read-out and setting: under `CO[C@H]1Cc2cc(-c3nc(-c4ccc(Cl)cc4)no3)cnc2OC1(C)C` [Example 19, (S)-6-(3-(4-chlorophenyl)-1,2,4-oxadiazol-5-yl)-3-methoxy-2,2-dimethyl-3,4-dihydro-2H-pyrano[2,3-b]pyridine] stands 340 nM.
Turning to `CC1(C)Oc2ncc(-c3nc(-c4ccc(Br)cc4)no3)cc2C(N)C1O` (stereo not drawn) [Example 2, 4-amino-6-(3-(4-bromophenyl)-1,2,4-oxadiazol-5-yl)-2,2-dimethyl-3,4-dihydro-2H-pyrano[2,3-b]pyridin-3-ol], the IC50 under setting [2] was 8150 nM.
Regarding `Cn1ccc(-c2noc(-c3cnc4c(c3)C[C@H](O)C(C)(C)O4)n2)n1` [Example 18, (S)-2,2-dimethyl-6-(3-(1-methyl-1H-pyrazol-3-yl)-1,2,4-oxadiazol-5-yl)-3,4-dihydro-2H-pyrano[2,3-b]pyridin-3-ol], the IC50 under setting [1] worked out at 28 nM.
As to `CC1(C)Oc2ncc(-c3nc(-c4cc(Cl)cc(Cl)c4)no3)cc2C[C@@H]1O` [Example 39, (S)-6-(3-(3,5-dichlorophenyl)-1,2,4-oxadiazol-5-yl)-2,2-dimethyl-3,4-dihydro-2H-pyrano[2,3-b]pyridin-3-ol], the IC50 under setting [2] was 1250 nM.
The same measure, in the same setting: next, `CC1(C)Oc2ncc(-c3nc(-c4ccc(Br)cc4)no3)cc2[C@H](O)[C@H]1O` [Example 8, (3R,4S)-6-(3-(4-bromophenyl)-1,2,4-oxadiazol-5-yl)-2,2-dimethyl-3,4-dihydro-2H-pyrano[2,3-b]pyridine-3,4-diol]: 11300 nM.
